Here are results for 17 molecules from patent US6395876B1 (Medical College of Georgia Research Institute, Inc., priority 1997, dated 2002).

SMILES strings stand for the structures. Values joined by “and” are separate entries in the source; they are usually repeats but may differ in a detail not shown here. Equal values may be shown once. “Also recorded” adds a separate entry of the source. Read-outs that look alike come from different tables or passages of the source. Where only a bound is given, the exact number is not on record here.

Broadly, the IC50 is the midpoint of a concentration-inhibition curve. As a reminder, the Ki is the dissociation constant of the complex between target and ligand, obtained from inhibition or displacement. What is called Km is the concentration of substrate that gives half-maximal velocity.

The subject of assay [1] is high affinity tryptophan transporter. The assay can be described thus: Competition of unlabeled substrates with radiolabeled tryptophan uptake, high-affinity system, macrophages. The format is cell-based, human.
Description: Uptake measurements. Single cell suspensions were obtained by treating macrophage monolayers with 2 mM EDTA in Hanks balanced salt solution for 15 minutes at room temperature. Cells were washed twice in Tris-choline buffer (150 mM choline chloride, 10 mM tris, pH 7.4), suspended in Tris-choline at between one and 2×10^6 cells/ml, and 100 μl/well added to 96 well microtiter plates. Titrations of radiolabeled amino acids were then transferred to the assay plate and uptake allowed to proceed for 10 minutes (the linear range). At the end of the assay period, wells were harvested simultaneously onto glass-fiber filters and washed vigorously for 30 seconds with phosphate buffered saline solution using a Tomtec 96 well parallel harvester. Nonspecific binding of radioactivity to the filters (based on wells without cells) was typically less than 10% of the total signal, and was subtracted from each data point. All assays were performed in triplicate; where error bars are not shown the SD between replicates was less than 10%. In all assays, the uptake rate (V) was normalized per 1×10^6 cells (expressed as pmol 10^6 cells^−1. 10 min^−1). Normalization to milligrams protein was considered less informative because protein content can change markedly during macrophage differentiation, independently of other functional attributes.
The subject of assay [2] is system L. The assay can be described thus: Competition of unlabeled substrates with radiolabeled tryptophan uptake, system L component, macrophages. The format is cell-based, human. As to conditions: for Ki: read-out: Ki (fit to Equation 1, single-system competitive model). An excerpt:
(§1) For competitive inhibition studies, the Ki value for each competitor was estimated by fitting the measured inhibition curve to the formula in Equation 1 (Cheng and Prusoff 1973, Biochem. Pharmacol. 22, 3099-3108). [formula]
(§2) where [S] is the concentration of labeled substrate, [I] is the concentration of unlabeled inhibitor, Vi is the observed rate of uptake in the presence of inhibitor, Ki is the putative affinity constant of the inhibitor for the transporter, and Km and Vmax have their customary meanings.

Assay [3] deals with system L. In words: Radiolabeled amino acid uptake saturation kinetics, lower-affinity system, macrophages. The format is cell-based, human. As to conditions: for Km: read-out: Km of low affinity transporter (system L). An excerpt: Monocyte isolation and culture.
Analysis of saturation kinetics.

Assay [4] has as its system high affinity tryptophan transporter.
Description: Human peripheral blood monocytes were isolated from healthy volunteer donors by leukocytapheresis and counterflow centrifugal elutriation, following appropriate informed consent under a protocol approved by our Institutional Review Board.
Single cell suspensions were obtained by treating macrophage monolayers with 2 mM EDTA in Hanks balanced salt solution for 15 minutes at room temperature. Cells were washed twice in Tris-choline buffer (150 mM choline chloride, 10 mM tris, pH 7.4), suspended in Tris-choline at between one and 2×10^6 cells/ml, and 100 μl/well added to 96 well microtiter plates. […] Nonspecific binding of radioactivity to the filters (based on wells without cells) was typically less than 10% of the total signal, and was subtracted from each data point. […] In all assays, the uptake rate (V) was normalized per 1×10^6 cells (expressed as pmol 10^6 cells^−1. 10 min^−1). […]
Uptake kinetics were analyzed using an Eadie-Hofstee transformation (V/[S] vs. V) to identify linear concentration ranges for each transporter. Data from these two ranges were then analyzed separately using double-reciprocal (Lineweaver-Burk, 1/[S] vs. 1/V) plots to determine Km and Vmax. […] Kinetic parameters were calculated on a minimum of 4-6 points, and were considered reliable if the correlation coefficient of the regression line was greater than 0.95. […]
In assay [5] the test system is system L. Conditions: read-out: reported Km of system L for tryptophan; reported affinity; cited from earlier work.
In assay [6] the test system is monocyte derived macrophages. In words: Total tryptophan uptake in monocyte-derived macrophages (sodium and temperature dependence). The assay is classed as cell-based, human. On the procedure:
The majority of tryptophan uptake is sodium-independent. Uptake in the absence of sodium was 86±6% of uptake in saline, n=4 Therefore all subsequent assays were performed in the absence of sodium.

For assay [7], the system named is system L. In words: Competition of unlabeled tryptophan for uptake of radiolabeled leucine or phenylalanine, macrophages. The assay is classed as cell-based, human. Conditions: labeled leucine or phenylalanine 125 nM.
From the text: as §1, §2

[8] abbreviates: unlabeled competitor vs radiolabeled tryptophan (125 or 250 nM).
Setting [9] is: unlabeled competitor 4 μM, radiolabeled tryptophan 125 nM.
Where [10] appears, read: read-out: IC50 for inhibition of radiolabeled tryptophan uptake, radiolabeled tryptophan 125 nM.
The mark [11] stands for this setting: uptake of the radiolabeled amino acid, high substrate concentrations (8-64 μM).

For the molecule `Cn1cc(C[C@H](N)C(=O)O)c2ccccc21` [1-methyl tryptophan], the “competition with tryptophan for the high-affinity system” value (shortened to “competition with tryptophan”) in assay [1] (setting [8]) is “no competition”.
For the molecule `N[C@@H](Cc1c[nH]c2ccc(O)cc12)C(=O)O` [5-hydroxy tryptophan], the “competition with tryptophan” value is “did not compete” in assay [1] (setting [8]) and “failed to compete” in assay [1] (unlabeled competitor vs radiolabeled tryptophan (125 or 250 nM), listed as 5-hydroxy derivative of tryptophan).
As for `N=C(N)NCCC[C@H](N)C(=O)O` [ARG], in assay [1], the “effect of 4 μM unlabeled competitor on tryptophan uptake” value (“effect of 4 μM unlabeled competitor” for short) was “little impact”.
Take `NC1(C(=O)O)CC2CCC1C2` (centres unmarked) [BCH, 2-aminobicyclo(2,2,1)-hepatane-2-carboxylic acid]: the “mode of inhibition of tryptophan uptake, high-affinity range” value in assay [1] (less than 1 μM tryptophan, 500 μM unlabeled BCH) is reported as “strictly non-competitive; also recorded: weak non-competitive inhibitor”. Also, the IC50 in assay [1] (saturation kinetics of tryptophan (<1 μM) with or without 500 μM BCH, read-out: IC50 for interaction with the high-affinity system) is above 500 µM; with system L [2] (setting [10]) it was 37 µM. In addition, the “effect of 4 μM unlabeled competitor” value in assay [1] (setting [9]) is on record as “minimal effect; also recorded: little impact”. Further, the “competition with tryptophan” value in assay [1] (setting [8]) is “no evidence of competition; also recorded: did not compete; also recorded: not able to compete”. The “mode of inhibition of tryptophan uptake, system L range” value with system L [2] (greater than 8 μM tryptophan, 500 μM unlabeled BCH) was “competitive inhibitor; also recorded: competitively inhibits”. In addition, the “IC50 of BCH relative to IC50 of tryptophan” value with system L [2] (inhibition of tryptophan transport, radiolabeled tryptophan 125 nM) was “approximately 100 fold”. For the same molecule, the “inhibition of tryptophan transport by 8 mM unlabeled substrate” value with system L [2] (radiolabeled tryptophan 125 nM, unlabeled substrates 8 mM each) is “inhibited”. The Ki on system L [2] (radiolabeled tryptophan 125 nM) came to 37 µM.
On to `N[C@H](Cc1c[nH]c2ccccc12)C(=O)O` [D-tryptophan], for which the “competition with tryptophan” value in assay [1] is listed as “did not compete”.
As to `N[C@@H](Cc1c[nH]cn1)C(=O)O` [HIS], in assay [1] (setting [9]), the “effect of 4 μM unlabeled competitor” value is reported as “little impact”.
Turning to `CC[C@H](C)[C@H](N)C(=O)O` [ILE], the “effect of 4 μM unlabeled competitor” value in assay [1] (setting [9]) was “little impact”.
Still for that read-out and setting: the entry for `NCCCC[C@H](N)C(=O)O` [LYS] is “little impact”; for `CSCC[C@H](N)C(=O)O` [MET] it is “little impact”.
As to `CC(=O)N[C@@H](Cc1c[nH]c2ccccc12)C(=O)O` [N-acetyl tryptophan], in assay [1] (setting [8]), the “competition with tryptophan” value is given as “did not compete”.
For the molecule `C[C@@H](O)[C@H](N)C(=O)O` [THR], the “effect of 4 μM unlabeled competitor” value in assay [1] (setting [9]) was “little impact”.
On the same count and under the same terms, the entry for `N[C@@H](Cc1ccc(O)cc1)C(=O)O` [TYR, tyrosine] is “little impact”; for `CC(C)[C@H](N)C(=O)O` [VAL] it is “little impact”.
With `CC(C)C[C@H](N)C(=O)O` [leucine], the “effect of 4 μM unlabeled competitor” value in assay [1] (setting [9]) is “little impact”. Also, the “competition with tryptophan” value in assay [1] (setting [8]) is given as “do not compete”. In the assay with system L [3] (setting [11]), the Km worked out at 26 ± 6 µM.
Turning to `N[C@@H](Cc1ccccc1)C(=O)O` [phenylalanine], the “effect of 4 μM unlabeled competitor” value in assay [1] (setting [9]) was “little impact”. Further, the “competition with tryptophan” value in assay [1] (setting [8]) is recorded as “do not compete; also recorded: no detectable competition”. Besides, at system L [2] (radiolabeled tryptophan 125 nM), the Ki was around 10 µM. In the assay with system L [3] (setting [11]), the Km came out at 29 ± 2 µM.
On to `NCCc1c[nH]c2ccc(O)cc12` [serotonin], for which the “competition with tryptophan” value in assay [1] (setting [8]) is on record as “did not compete”.
As for `N[C@@H](Cc1c[nH]c2ccccc12)C(=O)O` [tryptophan], the Ki was 0.36 µM in assay [1] (radiolabeled tryptophan 125 nM, read-out: Ki (fit to Equation 1, single-system model)) and 30 µM on system L [7] (read-out: Ki of tryptophan versus labeled leucine or phenylalanine uptake). For the same molecule, the half-maximal inhibitory concentration (IC50) in assay [1] (setting [10]) is 0.36 µM. The “effect of 4 μM unlabeled competitor” value in assay [1] (setting [9]) is on record as “markedly inhibited”. Further, the Km in assay [4] is 0.29 ± 0.16 µM; in the assay on system L [5] it was 8 to 30 µM; in the assay with system L [3], 27 µM and 30 µM and 20 to 30 µM. In assay [4], the “calculated uptake with the selective high-affinity system present” value is 70 fmol 10^6 cells^−1. 10 min^−1. For the same molecule, the “reduction of the rate of tryptophan accumulation at 0° C.” value in assay [6] (0° C. vs 25° C., up to 30 min) came to 90%. For the same molecule, the “uptake in the absence of sodium relative to uptake in saline” value in assay [6] (radiolabeled tryptophan 125 nM, choline chloride vs 150 mM NaCl) is 86% and 86±6%. In addition, the “high-affinity inhibition of phenylalanine or leucine uptake” value in the assay on system L [7] is reported as “no detectable”. Further, the “calculated uptake via system L alone” value with system L [3] (Equation 1, 50 nM tryptophan, 1 mM total other competing amino acids) was 1.5 fmol 10^6 cells^−1. 10 min^−1. Besides, the “Vmax, system L component” value in the assay with system L [3] (after macrophage differentiation) is recorded as 27±4 pmol 10^6 cells^−1. 10 min^−1; in the assay with system L [3] (before macrophage differentiation) it was 14±8 pmol 10^6 cells^−1. 10 min^−1.
